The target of assay [1] is T1, HSF-PLA2 (Homo sapiens, UniProt P14555).
T1 construct: extracellular enzyme obtained from human synovial fluid (HSF-PLA2); from tissue; host or cells: pooled human synovial fluid, added at 0.1% (v/v)
T1 sequence (P14555 21-144): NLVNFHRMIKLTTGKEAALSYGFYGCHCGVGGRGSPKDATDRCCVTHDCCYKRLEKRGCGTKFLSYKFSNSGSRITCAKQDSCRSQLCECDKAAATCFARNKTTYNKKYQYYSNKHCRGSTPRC
Briefly: Assay for Inhibition of HSF-PLA2 In Vitro. To be noted: read-out: Inhib of HSF-PLA2 IC50. The class given is biochemical. The method, boiled down:
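Extracellular PLA2 isolated from human synovial fluid, incubated 30 min at 37 °C with 14C-labelled phospholipid substrate in duplicate. Lipids were chloroform-extracted, and released 14C-oleic acid was separated from substrate by silica TLC; a no-enzyme control was run in each experiment.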

The test system of assay [2] is Croton Oil Mouse Ear Edema. The assay is described as follows: Croton Oil Mouse Ear Edema Test. The class given is in vivo, CD-1 mice. To be noted: topical, coapplied, 6 hours.
Procedure: Twenty five μl of a 1% croton oil solution [dissolved in a mixture of pyridine/water/diethyl ether at a ratio of 5/20/75 (croton oil vehicle)] are applied to the outer side of the right ear of 3-4 week old made CD-1 mice (8 animals per group). The test compounds are dissolved directly in the 1% croton oil solution at various concentrations and coapplied. Control animals receive 25 μl of croton oil vehicle on the right ear. Biopsy punches are removed at 6 hours from the right ear of the animals using a 6 mm skin trephine (Roboz, Washington, D.C.) and the wet weight of the ear punches is determined. The weight of the biopsy punches is a measure of ear inflammation, primarily edema. The data are expressed as percent inhibition relative to control groups.
Assay [3] concerns Naja naja snake venom PLA2 (SV-PLA2). The assay is described as follows: Assay for inhibition of snake venom PLA2 (SV-PLA2) in vitro. The assay is classed as biochemical. The settings on record: read-out: Inhib of SV-PLA2 IC50. Here is the method: ASSAY FOR INHIBITION OF SNAKE VENOM PLA2 (SV-PLA2) IN VITRO
Several representative compounds of the invention were also tested as inhibitors of Naja naja snake venom PLA2 (SV-PLA2). The assay employed in this study was the spectrophotometric method described by: C. Vigo, G. P. Lewis and P. J. Piper in Biochemical Pharmacology, 29:623-627 (1983), which was modified as described by: A. F. Welton, L. D. Tobias, C. Fiedler-Nagy, W. Anderson, W. Hope, K. Meyers and J. W. Coffey in "Plant Flavonoids in Biology and Medicine: Biochemical, Pharmacological and Structure-Activity Relationships", p 231-242, (1986) Alan R. Liss, Inc. The PLA2 paw edema model, (data in Table I) is initiated by injection of SV-PLA2.

In assay [4] the test system is Acetic Acid-Induced Colitis in Rats. The assay is described as follows: Acetic Acid-Induced Colitis in Rats. The class given is in vivo, rats (Sprague-Dawley). The source says: Acetic Acid-Induced Colitis in Rats The rat acetic acid-induced colitis bioassay has been described by J. E. Krawisz, et al. in Amer. J. Proc. Gastro. Col. Rec. Surg. 31: 11-18 (1980), and by P. Sharon and W. F. Stenson in Gastroenterology 88: 55-63 (1985) and 86:453-460 (1984). Acetic acid-induced colitis is characterized by the movement of inflammatory cells into the colon, with the number of such cells in the mucosa being measured by the activity of myeloperoxidase, a marker enzyme for these cells. Positive desirable activity is indicated by a reduction in the high levels of myeloperoxidase caused by acetic acid. […] The animals were administered a second dose of the test compound in the same amount about 16 hours later. Then 24 hours after the acetic acid treatment, the animals were sacrificed. The colonic mucosa was surgically removed and homogenized in an aqueous buffer at pH 6 with a Tissumizer or similar device and myeloperoxidase was measured in the homogenate using o-phenylenediamine as a cromagen, as described by […] and A. Bartlett in "The Enzyme Linked Immunosorbent Assay (ELISA)", Zoological Soc., London, 1979, pages 29-30. Control animals were pretreated with the vehicle and saline in place of acetic acid.

Assay [5] relates to PLA2 Rat Paw Edema. The assay is described as follows: Phospholipase A2 Rat Paw Edema. The class given is in vivo, Lewis rats. The settings on record: for inhibition in vivo at 30 mg/kg: Rattus norvegicus, 2 hr, read-out: % Inhib of PLA2 Rat Paw Edema 2 hr (30 mg/kg). The method, boiled down:
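Lewis rats (~200 g, n=7) dosed i.p. (in DMSO) or orally (in Labrafil M-1944CS) 1 h before subplantar injection of 5 ug Naja naja PLA2 into right hind paw. Paw volume by plethysmometry at 0.5, 2 and 4 hr minus baseline; % change versus vehicle, Student's t-test.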

Assay [6] relates to adjuvant arthritis model in rats. Briefly: Established Adjuvant Arthritis Test. The class given is in vivo. Here is the method: Established Adjuvant Arthritis Test
Representative compounds of the invention were tested in the standard adjuvant arthritis model in rats, induced by Freunds complete adjuvant, as described by C. E. Brinckerhoff, J. W. Coffey and A. C. Sullivan, Science, 221, p. 756-758 (1983).

Assay [7] deals with rat carrageenan-induced paw edema. The assay is described as follows: Rat Carrageenan Paw Edema. The assay is classed as in vivo, Lewis rats. The settings on record: 2 h, 30 mg/kg ip. How it is done: Rat Carrageenan Paw Edema
Representative compounds of the invention were tested in rat carrageenan-induced paw edema to determine their ability to inhibit this acute inflammatory response. Test compounds are administered intraperitoneally or orally to groups of seven Lewis rats (≈200 gm) 1 hr prior to carrageenan administration. The test compounds are dissolved in dimethyl sulfoxide for intraperitoneal administration and dissolved or suspended in Labrafil […] for oral administration. At 0 hour, 0.1 mL of 1% carrageenan dissolved in pyrogen free saline is injected subplantarly into the right hind paw to elicit the inflammatory response. The volume (in mL) of the right hind paw is measured by immersion of the paw to the level of the lateral malleolus in an aqueous plethysmometer immediately prior to the injection of carrageenan and then at 1, 2 and 4 hr after carrageenan injection. The paw edema is calculated by substracting the zero time reading from the readings taken after injection. The percent change of the edema volume from the vehicle treated control is calculated to determine the activity of the test compound. Statistical analysis of the mean paw edema values of the control versus the treated groups are performed using Student's t-test.
(In general: Carrageenan injected into the paw causes an acute inflammation.)

Assay [8] concerns mouse skin. To be noted: cited from earlier work.

In general, IC50 refers to the concentration that inhibits the measured activity by half. On to `CCCCCCCCCCCCOc1cc(OCCCCCCCCCCCC)cc(N(CC(=O)O)CC(=O)O)c1` [Example 6d, N-(carboxymethyl)-N-[3,5-bis(dodecyloxy)phenyl]glycine], for which the IC50 in assay [1] came out at 0.05 µM; in assay [3], 0.17 µM. For the same compound, the “% Inhib of Croton Oil Mouse Ear Edema (1 mg)” value (from here on “% Inhib … (1 mg)”) in assay [2] is reported as 21%.
For the compound `CCCCCCCCCCCCCCCCCCOc1cccc(N(CC(=O)O)CC(=O)O)c1` [Example 36, N -(Carboxymethyl)-N-[3-(octadecyloxy)phenyl]glycine], the IC50 in assay [1] was 0.17 µM. The “% Inhib … (1 mg)” value in assay [2] turned out to be 21%. For the same compound, in assay [4], the “% Inhibition of Myeloperoxidase Accumulation at 10 mg/kg po” value (“% Inhibition” for short) is listed as 190 ± 76%.
Take `CCCCCCCCc1ccc(N(CC(=O)O)CC(=O)O)cc1` [Example 39c, N-(carboxymethyl)-N-(4-octylphenyl)glycine]: the IC50 stood at 1.7 µM in assay [1] and 0.066 µM in assay [3].
As to `CCCCCCCCCCCCCCOc1cc(OCCCCCCCCCCCCCC)cc(N(CC(=O)O)CC(=O)O)c1` [Example 6e, N-(carboxymethyl)-N-[3,5-bis(tetradecyloxy)phenyl]glycine], in assay [1], the IC50 is 0.13 µM. In addition, the “% Inhibition” value in assay [4] is 145 ± 72%. Further, the “% Inhib of PLA2 Rat Paw Edema 2 hr” value in assay [5] ((50 mg/kg)) was 44%.
On to `CCCCCCCCOc1cc(OCCCCCCCC)cc(N(CC(=O)O)CC(=O)O)c1` [Example 6c, N-(carboxymethyl)-N-[3,5-bis(octyloxy)phenyl]glycine], for which the figures for the IC50 in assay [1] and in assay [3] were 0.4 µM and 0.022 µM, respectively. The “% Inhib … (1 mg)” value in assay [2] was 0%. In addition, the inhibition in vivo at 30 mg/kg in assay [5] is 7%.
As to `CCCCCCCCCCNC(=O)c1cc(C(=O)NCCCCCCCCCC)cc(N(CC(=O)O)CC(=O)O)c1` [Example 16, N-(Carboxymethyl)-N-[3,5-bis[(decylamino)carbonyl]phenyl]glycine], the results for the IC50 in assay [1] and in assay [3] were 0.3 µM and 0.05 µM, respectively. The “% Inhib … (1 mg)” value in assay [2] amounted to 10%. The “% Inhibition” value in assay [4] was found to be 212 ± 124%. In assay [5], the inhibition in vivo at 30 mg/kg is 0%.
Turning to `CCCCCCCCCCOc1cc(OCCCCCCCCCC)cc(N(CC(=O)O)CC(=O)O)c1` [Example 6, N-(Carboxymethyl)-N-[3,5-bis(decyloxy)phenyl]glycine], in assay [6] (30 mg/kg ip), the “Change in Paw Volume (mL) Treated” value is -0.04 ± 0.24 mL. The IC50 in assay [1] came to 0.24 µM; in assay [3], 0.017 µM. The “% Inhib … (1 mg)” value in assay [2] is listed as 13%. For the same compound, in assay [5], the inhibition in vivo at 30 mg/kg was determined as 45%.
Take `CCCCCCCCCCCCCCCCCCOc1cc(OCCCOc2ccccc2)cc(N(CC(=O)O)CC(=O)O)c1` [Example 58, N-(Carboxymethyl)-N-[3-(octadecyloxy)-5-(3-phenoxypropoxy)phenyl]glycine]: in assay [6] (10 mg/kg ip), the “Change in Paw Volume (mL) Treated” value was determined as 0.37 ± 0.14 mL. Also, the inhibition in vivo at 30 mg/kg is 29% in assay [7] and 36% in assay [5]. For the same compound, in assay [1], the IC50 is 0.06 µM. The “% Inhib … (1 mg)” value in assay [2] was determined as 78%.
In the same order, the values of `CCCCCCCCCCCCCCCCCCOc1cc(OCCCOc2cccc(N)c2)cc(N(CC(=O)O)CC(=O)O)c1` [Example 58n, N-(carboxymethyl)-N-[3-[3-(3-aminophenoxy)propoxy]-5-(octadecyloxy)phenyl]glycine] are 0.23 ± 0.12 mL, 65%, 4%, 0.13 µM and 64%.
`COc1ccc2c(c1)c(CC(=O)O)c(C)n2C(=O)c1ccc(Cl)cc1` [Indomethacin]: in assay [8], the “TPA-mediated increase in epidermal PGE2 levels” value is listed as “prevented” and the “TPA-mediated induction of epidermal cell ornithine decarboxylase” value is reported as “prevented”.
Turning to `CCCCCCCCCCCCCCCCCCOc1cc(OCCCP(=O)(OCC)OCC)cc(N(CC(=O)O)CC(=O)O)c1` [Example 88, N-(Carboxymethyl)-N-[3-[3-(diethoxyphosphinyl)propoxy]-5-(octadecyloxy)phenyl]glycine], the “Change in Paw Volume (mL) Treated” value in assay [6] (30 mg/kg ip) was -0.90 ± 0.11 mL. The inhibition in vivo at 30 mg/kg was determined as 57% in assay [7] and 46% in assay [5]. In assay [1], the IC50 is 0.4 µM. In addition, in assay [2], the “% Inhib … (1 mg)” value turned out to be 43%.

Values taken from patent publication US5324747A, “N-substituted anilines, inhibitors of phospholipases A2” (Hoffmann-La Roche Inc., priority 1992, dated 1994).
